≈ marks a conversion by molar mass, not a printed value.
Experiments:
[1] = tested on: recombinant humanized IgG1 antibody; test: Antibody fragmentation in HCCF kept under nitrogen, air or oxygen with or without CDME (non-reducing SDS-Protein Lab Chip); format: biochemical
Experimental: A CHO cell culture producing recombinant humanized IgG1 antibody was subjected to centrifugation and the resulting harvest cell culture fluid (HCCF) was frozen at −80° C. […] At various time points, samples were quenched with N-ethylmaleimide (NEM), purified using immobilized Protein A, and analyzed for fragments using non-reducing SDS-Protein Lab Chip electrophoresis. […] In contrast, the sample overlayed with air became less fragmented with time, reaching a plateau of about 25% fragmentation at 20 hours.

[2] = 50 mM potassium phosphate buffer, pH adjusted to 7.1
[3] = tested on: humanized FOLR1 IgG1; test: Antibody fragmentation in HCCF with 20% (v/v) microfluidized CHO cells (non-reducing SDS-Protein Lab Chip); format: biochemical; settings: 1 mM of each additive, 6 h; no additive control 78%
Experimental: The microfluidization was carried out using 3 liter CHO cells from a bioreactor, which were resuspended into 300 ml PBS, processed through microfluidizer, centrifuged and filtered through 0.22 micrometer membrane. […] The samples were quenched with 5 mM N-ethylmaleimide (NEM), purified using immobilized Protein A, and subjected to non-reducing SDS-Protein Lab Chip electrophoretic analysis.

[4] = physchem; settings: thermodynamic from solid
[5] = tested on: Humanized anti-folate receptor 1 (FOLR1) IgG1; test: Thiol per antibody (DTNB/Ellman's) after incubating immobilized antibody with damaged CHO cell supernatant; format: biochemical; settings: 0.05 mM agent, 2.2 hours; antibody eluted from Protein A bead, neutralized to pH 7
Experimental: For all of the examples described below, cell damage was simulated by multiple freeze-thaw cycles of cells, by addition of RIPA buffer (50 mM Tris-HCl, pH 7.4, 1% NP-40, 0.5% sodium deoxycholate, 0.1% sodium dodecylsulfate), or by using microfluidizer. This damaged cell supernatant or lysate was then incubated with a buffered solution containing antibody with or without the anti-reduction agent being tested, following which the extent of the antibody-disulfide reduction was measured using Ellman's assay for thiol (P. W. Riddles, R. L. Blakeley, and B. Zerner, Methods Enzymol., 91, 49-60, 1983) or by non-reducing SDS protein LabChip analysis. The total thiol level present in the mixture of damaged cell supernatant/lysate was measured initially. […]
The concentration of thiol in the suspension of damaged CHO cells was measured as 4 mM using DTNB ((5,5′-dithiobis(2-nitrobenzoic acid); Ellman's reagent). Humanized anti-folate receptor 1 (FOLR1) IgG1 (1 mg) was immobilized on 0.05 ml of Protein A bead (RepliGen) and then treated with pre-mixed 0.5 ml PBS and 0.1 ml damaged CHO cell supernatant. The concentration of thiol in this mixture was 0.67 mM. […]

Which results are given for `COC(=O)[C@@H](N)CSSC[C@H](N)C(=O)OC` [CDME, L-cystine dimethyl ester]?
time up to which the antibody was protected from reduction ([1]; 1 mM CDME with nitrogen): up to 20 hours; time up to which the antibody was protected from reduction ([1]; 2 mM CDME with nitrogen): ≤ 45 h; fragmentation with air overlay plus CDME versus air alone ([1]; ~1 mM CDME with air overlay, up to 72 hours): lowered the fragmentation further; concentration dissolved in buffer [2]: ≥ 5000 µM; fragmentation compared to no additive control [3]: much lower fragmentations

Which solubility ([4]; water) does the source give for `N[C@@H](CSSC[C@H](N)C(=O)O)C(=O)O` [L-cystine, reference compound] here?
Its solubility is ~0.5 mM (≈ 0.12 mg/mL).

For `CN(C)c1ccc2nc3ccc(N(C)C)cc3[s+]c2c1` [methylene blue, Methylene blue], which “thiol per antibody of eluted, neutralized antibody” value [5] is on record?
The value was 0.002 thiol per antibody.

Which “concentration dissolved in buffer” value [2] does the source give for `Cl.Cl.N[C@@H](CSSC[C@H](N)C(=O)O)C(=O)O` [L-cystine dihydrochloride, reference compound] here?
The value was “less than 5 mM”.

With `CCOC(=O)[C@@H](N)CSSC[C@H](N)C(=O)OCC` [CDEE, L-cystine diethyl ester] as the compound, how does the solubility ([4]; pH 7, aqueous buffer) read?
The solubility was > 100 mM.

And the solubility ([4]; water)?
The solubility was ≥ 1000 mM.

Which “fragmentation compared to no additive control” value [3] does the source give for `O=C1c2ccccc2C(=O)c2cc(S(=O)(=O)O)ccc21` [AQS, anthraquinone-2-sulfonic acid] here?
The value was “much lower fragmentations”.

With `O=O` [oxygen] as the compound, how does the protection against fragmentation ([1]; sparging with oxygen at various percentages of dissolved O2) read?
Its protection against fragmentation is “showed protection against fragmentation”.

Reference: patent US20170002393A1, “COMPOSITIONS AND METHODS FOR ANTIBODY PRODUCTION” (IMMUNOGEN, INC., priority 2013, published 2017)
